The record followed here is patent US5015637A, “Pyrido[3,4-b]pyrrolo[1,2-e][1,4,5]oxadiazepines” (Hoechst-Roussel Pharmaceutical Inc., priority 1990, dated 1991).

The assay relates to Phenylquinone-Induced Writhing in Mice. Briefly: Inhibition of Phenylquinone-Induced Writhing in Mice (PQW). The class given is in vivo, mice (male CD-1 Charles River). On the procedure:
Compounds I of the present invention are also useful as analgesic agents due to their ability to alleviate pain in mammals. […] Exptl. Biol. Med., 95, 729 (1957)].
Inhibition of Phenylquinone-Induced Writhing in Mice (PQW)
A 0.125% concentration of phenyl-p-benzoquinone in a 5% aqueous solution of ethyl alcohol is administered to mice (10 mL/kg, ip). This produces a characteristic "writhe" which is defined as an inward rotation of one or more feet with twisting and turning of the trunk, drawing in of the abdominal wall, lordosis, and arching of the back. A total of 28 male CD-1 Charles River mice (18-30 g) are employed for a time-response. Animals receive food and water ad libitum during their stay in the animal quarters prior to testing. Compounds are tested at 20 mg/kg, sc and are prepared with distilled water, and if insoluble one drop of Tween-80, a surfactant, is added. Compounds are administered in a dosage volume of 10 mL/kg.
Twenty mice (five per group) are administered the test compound at various pretreat time (e.g., 15, 30, 45, and 60 min) prior to phenylquinone injection. Control animals (two per group) receive an equal volume of vehicle. After the administration of phenylquinone, the mice are placed separately into 1-L beakers, and 5 min are allowed to elapse. The mice are then observed for a period of 10 min, and the number of writhes is recorded for each animal. The formula for computing percent inhibition is [formula]
The time period with the maximum percent of inhibition is considered the peak time. A dose-response is reserved for interesting compounds or those which inhibit writhing by 70% or more. A dose-response is run in the same manner as a time-response except 10 animals per group are tested at the peak time of drug activity. Fifty animals, divided among four drug groups and one vehicle control group, are employed. The mice are normally given four doses of drug, each twice the amount of the preceding dose. An ED50 is calculated by a computer linear regression analysis.
On the technique in general: Writhing tests count abdominal constrictions after an irritant is injected.

Consider `CN1c2ccncc2OCc2cccn21` [5-Methyl-5H,10H-pyrido[3,4-b]pyrrolo[1,2-e][1,4,5]-oxadiazepine], for which the “% Inhibition of Writhing @ 20 mg/kg, s.c.” value is 58%.
On the same count and under the same terms, next, `CN1CCC(C2Oc3cnccc3N(C)n3cccc32)CC1` (stereo not drawn) [5-Methyl-10-(1-methyl-4-piperidinyl)-5H,10H-pyrido[3,4-b]pyrrolo[1,2-e][1,4,5]oxadiazepine]: 47%.
Take `CC(C)=CCN1CCC2(C)c3cc(O)ccc3CC1C2C` (stereo not drawn) [Pentazocine, reference compound]: where the note is “at the dose of 1.3 mg/kg, s.c. (footnote *)”, the “% Inhibition of Writhing” value is recorded as 50%.
